Assay results as given in US20230348477A1, “ORGANIC COMPOUND, LIGHT-EMITTING DEVICE, LIGHT-EMITTING APPARATUS, AND ELECTRONIC DEVICE” (SEMICONDUCTOR ENERGY LABORATORY CO., LTD., priority 2022, published 2023).
≈ marks a conversion by molar mass, not a printed value. Entries after “also recorded” stand apart in the source; their conditions may differ.

Tests used:
[1] = Solubility test in water by visual inspection; assay type: physicochemical; conditions: room temperature, one atmosphere; for solubility in water, result in words (visual inspection): about 1.2 mg sample, water added in 10 mL steps (tip compounds)
Experimental: (§1) In this example, the organic compounds synthesized in Examples 1 and 2 are used to explain the solubility of the organic compound of one embodiment of the present invention. The solubility tests of this example were performed at room temperature (RT) at one atmosphere.
(§2) Into a 110 mL sample bottle, 1.21 mg of 2,6tip2Py was put and 10 mL of water was added thereto. This mixture was irradiated with ultrasonic waves for one minute. A precipitated white powder was found by visual inspection for an insoluble residue. After further addition of 10 mL of water and one-minute ultrasonic wave irradiation, a precipitated white powder was found by visual inspection. This procedure was repeated until the dissolution was confirmed by visual inspection.
Into a 110 mL sample bottle, 1.23 mg of 2,7tip2SF was put and 10 mL of water was added thereto. This mixture was irradiated with ultrasonic waves for one minute. A precipitated white powder was found by visual inspection for an insoluble residue. After further addition of 10 mL of water and one-minute ultrasonic wave irradiation, a precipitated pale yellow powder was found by visual inspection. This procedure was repeated until the dissolution was confirmed by visual inspection.
Into a 5 mL sample bottle, 50.2 mg of 1,1′-pyridine-2,6-diyl-bis(1,3,4,6,7,8-hexahydro-2H-pyrimido[1,2-a]pyrimidine) (abbreviation: hpp2Py) having a structure where a hydropyrimidine ring is substituted for the imidazole ring of the guanidine skeleton in 2,6tip2Py, which is an organic compound of one embodiment of the present invention, was put, and 1.0 mL of water was added thereto. The dissolution was found by visual inspection for an insoluble residue.
as §2, with “20” for “110”, “1.16” for “1.21”, “1,1′-(9,9′-spirobi[9H-fluorene]-2,7-diyl)bis(1,3,4,6,7,8-hexahydro-2H-pyrimido[1,2-a]pyrimidine) (abbreviation: 2,7hpp2SF) having a structure where a hydropyrimidine ring is substituted for the imidazole ring of the guanidine skeleton in 2,7tip2SF, which is an organic compound of one embodiment of the present invention,” for “2,6tip2Py”, “put,” for “put”, “0.5” for “10”
The precipitated white powder was found until the total amount of water reached 3.0 mL. After further addition of 0.5 mL of water and ultrasonic wave irradiation, no precipitated white powder was found.

[2] = Solubility test in water by LC/MS; assay type: physicochemical; conditions: room temperature, one atmosphere; for solubility in water, result in words (LC/MS): 1 mg in 1 mL water
Experimental: as §1
In the LC-MS analysis, liquid chromatography (LC) separation was carried out with ACQUITY UPLC manufactured by Waters Corporation, and MS analysis (mass spectrometry) was carried out with Xevo G2 Tof MS manufactured by Waters Corporation. Acquity UPLC BEH C8 (2.1 × 100 mm, 1.7 µm) was used as a column for the LC separation. Acetonitrile was used for Mobile Phase A and a 0.1 % aqueous solution of formic acid was used for Mobile Phase B. The amount of injection of the sample was 5.0 µL. Note that in the analysis, the wavelength of a photodiode array detector was set to 270 nm.
Into a 5 mL sample bottle, 1 mg of 2,6tip2Py was put and 1 mL of chloroform was added thereto. This mixture was irradiated with ultrasonic waves for five minutes. After it was confirmed that the solid was completely dissolved, this solution was diluted by five times with acetonitrile, whereby the concentration of the solution was adjusted to 200 mg/L. This solution was diluted with acetonitrile, whereby a solution with a concentration of 40 mg/L, a solution with a concentration of 20 mg/L, and a solution with a concentration of 10 mg/L were prepared. The prepared solutions were subjected to LC/MS, and the peak area values derived from 2,6tip2Py, which were obtained at the respective solution concentrations, were used to form calibration curves.
Into a 5 mL sample bottle, 1 mg of 2,6tip2Py was put and 1 mL of water was added thereto. This mixture was irradiated with ultrasonic waves for five minutes. This mixture was filtered through a membrane filter to remove the solid, and the resulting filtrate was diluted by five times with acetonitrile. The obtained solution was subjected to LC/MS.
Into a 5 mL sample bottle, 1 mg of 2,7tip2SF was put and 1 mL of water was added thereto. This mixture was irradiated with ultrasonic waves for five minutes. […]

| weight dissolved in 1.0 mL of water ([1]; ultrasonic irradiation, visual inspection, per 1.0 mL of water) | solubility at 5 min ([2]; thermodynamic from solid, filtrate quantified by LC/MS against calibration curve, read-out: solubility in 1 mL of water) [µg/mL] | SMILES | solubility in water, result in words (visual inspection) [1] | solubility in water, result in words (LC/MS) [2] |
| --- | --- | --- | --- | --- |
| greater than or equal to 50.2 mg | – | c1cc(N2CCCN3CCCN=C32)nc(N2CCCN3CCCN=C32)c1 [hpp2Py, 1,1′-pyridine-2,6-diyl-bis(1,3,4,6,7,8-hexahydro-2H-pyrimido[1,2-a]pyrimidine)] | high solubility in water | – |
| – | 18 (≈ 56 µM) | c1cc(N2CCCn3ccnc32)nc(N2CCCn3ccnc32)c1 [2,6tip2Py, 8,8′-pyridine-2,6-diyl-bis(5,6,7,8-tetrahydroimidazo[1,2-a]pyrimidine)] | precipitated white powder was found until the total amount of water reached 100 mL | very low solubility in water |
| – | – | c1ccc2c(c1)-c1ccccc1C21c2cc(N3CCCn4ccnc43)ccc2-c2ccc(N3CCCn4ccnc43)cc21 [2,7tip2SF, 8,8′-(9,9′-spirobi[9H-fluorene]-2,7-diyl)bls(5,6,7,8-tetrahydrolmidazo[1,2-a]pyrimidine)] | precipitated pale yellow powder was found until the total amount of water reached 100 mL | insoluble in water; also recorded: very low solubility in water |
| – | – | c1ccc2c(c1)-c1ccccc1C21c2cc(N3CCCN4CCCN=C43)ccc2-c2ccc(N3CCCN4CCCN=C43)cc21 [2,7hpp2SF, 1,1′-(9,9′-spirobi[9H-fluorene]-2,7-diyl)bis(1,3,4,6,7,8-hexahydro-2H-pyrimido[1,2-a]pyrimidine)] | high solubility in water | – |
